Where no end group is shown, it is not given here. The star is where a group is joined. For = O=C*
What was measured:
Type in all cases: cell-based, human
MDA-MB-231 cells = experiment: Nuclear (Hoechst) staining for apoptotic cells after tamoxifen; conditions: MDA-MB-231, stimulation 24 and 48 hours, tamoxifen 5 μM for the last 20 hours
Protocol: MDA-MB-231 cells were grown in 6 well plates and stimulated with recombinant Wnt-5a protein (rW5a) or the Wnt-5a derived Foxy-5 peptide (F5), for 24 or 48 h. Cells were treated with tamoxifen for the final 20 h and their apoptotic responses were measured via different methods. […] Arrows highlight apoptotic cells. Bars represent […]. B: Following treatment with rW5a, F5 and tamoxifen, or tamoxifen alone, cells were lysed and subjected to SDS-PAGE, transferred to nitrocellulose membranes and blotted for cleaved caspase 3. C: Treated cells were assessed for their relative caspase 3 activity using fluorometric spectrophotometry. The graph represents 6 separate experiments. * P<0.01, ** P<0.001. D: MTT assays were also performed on MDA-MB-231 cells treated with rWnt-5a, F5 and tamoxifen, or tamoxifen alone (MDA-MB-231 and MCF-7 cells) to assess cell growth inhibition. The graph represents the average of 6 separate experiments, with standard deviation represented by error bars. ** P<0.01, *** P<0.001.
MDA-MB-231 cells were plated on cover slips and allowed to adhere. Wnt-5a (0.6 μg/ml) or Foxy-5 (100 μM) were added for 24 or 48 hours. Cells were then treated with tamoxifen (5 μM) for the last 20 hours. MCF-7 cells were used as a positive control. […] The morphology was analyzed with Nikon E800 Eclipse Microscope with 60× objective.

[1] = system: progesterone receptor (PR); experiment: Progesterone receptor mRNA by semi-nested RT-PCR in MDA-MB-231 cells; conditions: after 96 hours stimulation
Description: A: Following treatment, cells were lysed and subjected to SDS-PAGE, transferred to nitrocellulose membranes and blotted for phospho-ERα expression. The positive control (Pos) represents cell lysates from T47D cells expressing ERα B and C: RNA was also extracted from stimulated cells and samples tested for progesterone receptor (PR) (B) and pS2 (C) mRNA using semi-nested RT-PCR. The positive control (Pos) is RNA extracted from T47D cells that express ERα. The negative control represents a water control. PCR results are representative of three separate experiments.
cDNA was synthesized from 1 μg of total RNA using M-MuLV reverse transcriptase (Fermentas) in a MJ Mini Personal Thermal Cycler (Bio-Rad (Hercules Calif.)). All RT-PCR was performed in a designated clean PCR hood. RT-PCR was performed using a master mix containing with 5 μl of 10× buffer, 5 μl of 25 mM MgCl2, 1 μl 10 mM dNTP, 1 μl forward primer, 1 μl reverse primer and 0.2 μl of Taq polymerase (Fermentas (Ontario, Canada)) per sample. For detection of the progesterone receptor (PR), semi nested RT-PCR was performed to increase sensitivity, whereby 10 μl of the initial PCR reaction product was added to a second PCR reaction with a second internal reverse primer. Both A and β isoforms are amplified with these primers.

ERα = ERα mRNA by RT-PCR in stimulated MDA-MB-468 cells; conditions: time points 6, 12, 18 and 24 hours
Protocol: Breast cancer cells were grown in 6 well plates and stimulated with recombinant Wnt-5a protein (rW5a) or the Wnt-5a derived Foxy-5 peptide (F5), for 6, 12, 18 or 24 h. RNA was extracted at the end time point, cDNA synthesized and subjected to RT-PCR for ERα and the housekeeping gene, β-actin. A: MDA-MB-231 breast cancer cells, B: MDA-MB-468 breast cancer cells. The positive control (Pos) is RNA extracted from T47D cells which express ERα. The negative control represents a water control.
Stimulation of cells was performed with recombinant Wnt-5a (0.6 μg/ml) and recombinant Wnt-3a (0.1 μg/ml and in a control experiment, 0.6 μg/ml) (R&D Systems Abington, UK) for times as indicated. The Wnt-5a derived formylated hexapeptide, Foxy-5 (formyl-MDGCEL) (SEQ. ID. NO. 1) designed in the laboratory of the inventors, and a formylated random hexapeptide (formyl-MSADVG) (SEQ: ID: NO: 16) were either synthesized by Pepscan Presto (Lelystad, The Netherlands) or Inbiolabs (Tallinn, Estonia). The peptides were purified by RP-HPLC and mass spectrometry, and the >95% pure peptides were synthesized three times. […]
RNA extraction was performed in a designated clean RNA area with the addition of 500 μl TRIzol to each sample. […] The RNA concentration was measured using a Nanodrop Spectrophotometer ND-1000 (Bio-Rad (Hercules Calif.)). […]

ERα promoter = experiment: Bisulfite genomic sequencing of the ERα promoter in MDA-MB-231 cells; conditions: 48 hours, rWnt-5a 0.6 μg/ml, Foxy-5 100 μM
Protocol: MDA-MB-231 cells were grown in normal media and either left untreated, or stimulated with rWnt-5a protein (rWnt-5a, 0.6 μg/ml)) or the Wnt-5a derived Foxy-5 peptide (F5, 100 μM), for 48 hours. MCF-7 cells were grown for the same amount of time, and were left untreated. DNA was extracted from each sample and subjected to bisulfite modification. Bisulfite treated DNA was subjected to bisulfite genomic sequencing (BGS) of the ERα promoter using nested PCR with primers for the ERα promoter region. PCR products were cloned and 10 random clones sequenced. Filled (black) circles represent methylation at a given cytosine, empty (white) circles represent either unmethyllated cytosine or cytosines demethylated following rWnt-5a or Foxy-5 treatment. The numbers represent the position of CpG dinculeotides relative to the transcription start site (+1). The TATA box is located between positions −17 and +13.
DNA was extracted from cells according to standard procedures. 1 μg of DNA was then bisulfite treated using the EpiTect Bisulfite Kit (Qiagen) and amplified via nested PCR with primers for the ERα promoter region. PCR products were cloned using the TOPO TA cloning kit (Invitrogen). 10 random clones were sequenced using an AB13730 DNA analyzer (Applied Biosystems).

| Molecule | apoptotic cells by Hoechst staining in response to tamoxifen (MDA-MB-231 cells) | PR mRNA [1] | stimulation time after which ERα mRNA was detected (ERα) [h] | methylation of the ERα CpG island (ERα promoter) |
| --- | --- | --- | --- | --- |
| formyl-MDGCEL (For-MDGCEL; listed as Homo sapiens) [Foxy-5] | apoptotic cells displaying altered nuclear morphology | detected | 6 | demethylated |
| recombinant Wnt-5a: recombinant Wnt-5a protein (R&D Systems) (protein, UniProt P41221 62-380, looked up) Protein Wnt-5a: IIGAQPLCSQLAGLSQGQKKLCHLYQDHMQYIGEGAKTGIKECQYQFRHRRWNCSTVDNTSVFGRVMQIGSRETAFTYAVSAAGVVNAMSRACREGELSTCGCSRAARPKDLPRDWLWGGCGDNIDYGYRFAKEFVDARERERIHAKGSYESARILMNLHNNEAGRRTVYNLADVACKCHGVSGSCSLKTCWLQLADFRKVGDALKEKYDSAAAMRLNSRGKLVQVNSRFNSPTTQDLVYIDPSPDYCVRNESTGSLGTQGRLCNKTSEGMDGCELMCCGRGYDQFKTVQTERCHCKFHWCCYVKCKKCTEIVDQFVCK | apoptotic cells displaying altered nuclear morphology | detected | 12 | demethylated |

Reference: patent US20110124574A1, “RESTORATION OF ESTROGEN RECEPTOR-(ALPHA) ACTIVITY” (priority 2008, published 2011)
